Results taken from US7972828B2, “Stabilized compositions of thermostable DNA polymerase and anionic or zwitterionic detergent” (Sigma-Aldrich Co., priority 2006, dated 2011).

Legend:
Type in all cases: biochemical
Taq DNA polymerase [1] = molecular target: T1, Taq DNA polymerase (Thermus aquaticus, UniProt P19821); test: PCR detergent screening for ability to stabilize Taq DNA polymerase; conditions: for Detergent supported PCR in screening reactions: detergent tested at 5%, 0.5%, 0.05%, 0.005% or 0.0005%
T1 construct: purchased Sigma Aldrich, St. Louis, Mo
T1 sequence (P19821 whole entry): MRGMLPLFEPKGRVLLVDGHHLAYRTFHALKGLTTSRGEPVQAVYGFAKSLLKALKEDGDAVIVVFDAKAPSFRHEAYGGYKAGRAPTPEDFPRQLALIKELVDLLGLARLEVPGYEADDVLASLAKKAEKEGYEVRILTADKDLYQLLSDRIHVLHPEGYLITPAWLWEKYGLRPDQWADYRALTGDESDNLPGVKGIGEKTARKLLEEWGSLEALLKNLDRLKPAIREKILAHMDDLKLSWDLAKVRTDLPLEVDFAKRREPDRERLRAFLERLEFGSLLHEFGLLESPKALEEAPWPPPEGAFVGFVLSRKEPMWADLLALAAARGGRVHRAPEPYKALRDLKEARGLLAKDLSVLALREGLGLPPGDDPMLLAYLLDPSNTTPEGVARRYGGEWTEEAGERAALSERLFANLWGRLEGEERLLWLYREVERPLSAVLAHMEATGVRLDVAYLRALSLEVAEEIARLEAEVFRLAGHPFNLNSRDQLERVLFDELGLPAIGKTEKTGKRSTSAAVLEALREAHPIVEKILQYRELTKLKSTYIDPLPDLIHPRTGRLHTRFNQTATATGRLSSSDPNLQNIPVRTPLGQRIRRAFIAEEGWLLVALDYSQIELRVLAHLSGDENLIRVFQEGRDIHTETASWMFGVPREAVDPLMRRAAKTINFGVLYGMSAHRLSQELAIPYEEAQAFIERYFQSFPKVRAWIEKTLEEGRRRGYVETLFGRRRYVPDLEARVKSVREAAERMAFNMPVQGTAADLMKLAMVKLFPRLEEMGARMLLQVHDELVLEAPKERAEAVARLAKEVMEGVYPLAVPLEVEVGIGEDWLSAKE
Procedure: A PCR assay was used to screen 47 of the potential candidate detergents for their ability to stabilize Taq DNA polymerase. The final concentration of each detergent tested was 5%, 0.5%, 0.05%, 0.005%, or 0.0005%. A forward primer (5′-[…]-3′; SEQ ID No:1) and a reverse primer (5′-[…]-3′; SEQ ID No:2) were designed to amplify a 500 bp fragment of lambda DNA. Each 10 μl reaction contained:
1 μl 10 μM Forward Primer
1 μl 10 μM Reverse Primer
0.1 μl 5 Units/μl Taq DNA polymerase
The cycling parameters were 94° C. for 15 min and 30 cycles of 94° C. for 30 sec and 70° C. for 30 sec, and a 4° C. hold. For each series of detergents tested, positive control reactions comprising 0.0005% Tween 20 were included, as well as negative control reactions without any detergent. An aliquot of each reaction was resolved by agarose gel electrophoresis.

Taq DNA polymerase [2] = molecular target: T1, Taq DNA polymerase; test: Long-term stability of Taq formulations with DTT, assessed by PCR; conditions: stored at 25° C. 6 to 40 days, higher concentration of DTT (0.2 mM)
Procedure: The long-term stability of Taq formulated with either Tween 20, an anionic detergent, or a zwitterionic detergent was compared in the presence of two concentrations of DTT. Taq was formulated with 0.01% or 0.1% Tween 20, 0.1% or 1% poly(ethylene glycol) 4-nonylphenyl 3 sulfopropyl ether potassium salt, or 1% CHAPS. Each formulation was stored in the presence of 0.02 mM DTT or 0.2 mM DTT at 25° C. for periods of time ranging from 6 days to 40 days. The calculated corresponding periods for storage at −20° C. ranged from about 1.5 years to about 10 years (see FIG. 2). The ability of various formulations of Taq to support PCR was assessed using a PCR assay similar to that described in Example 1. The same primers and reactions conditions were used.
An aliquot of each reaction was resolved by agarose gel electrophoresis.

Taq DNA polymerase [3] = molecular target: T1, Taq DNA polymerase; test: Specificity of PCR amplification (BsrGIO, SacIO fragments) on agarose gel; conditions: 352 bp and 360 bp fragments, HEK293 genomic DNA
Procedure: To determine whether amplification in the presence of the anionic detergent, poly (ethylene glycol) 4-nonylphenyl 3-sulfopropyl ether potassium salt, produced less non-specific products, formulations comprising Tween 20 were compared to an anionic detergent formulation. Primers (see Table 4) were designed to amplify a 352 by fragment (BsrGIO) and a 360 by fragment (SacIO) in human genomic DNA. The reactions (50 μl) contained […] HEK293 genomic DNA, […], 1×PCR Buffer, 0.2 mM dNTPs, 0.05 U/μL Taq, and 4% DMSO. Thermocycling parameters were 94° C. for 2 min, 30 cycles of 94° C. for 20 sec, 58° C. for 30 sec, and 72° C. for 80 sec, a final extension at 72° C. for 10 min, and a 4° C. hold.
Aliquots of each sample were run on an agarose gel (FIG. 3). […] This finding raises the possibility that there may be a multimolecular complex comprising template, primer, detergent, and enzyme, and it is possible that the anionic detergent increased the coulombic repulsion between template/primers and the […].

Taq DNA polymerase [4] = molecular target: T1, Taq DNA polymerase; test: SYBR Green quantitative real-time PCR amplification efficiency on human genomic DNA; parameters: key to Reaction Efficiencies CD14F: *: No amplification product; key to Ct 14-3-3 / Ct CD14F / Ct HoxA2: cycle at which fluorescence exceeds a defined threshold; conditions: for Efficiency (dilutional efficiency) 14-3-3 / Efficiency (dilutional efficiency) CD14F / Efficiency (dilutional efficiency) HoxA2 / Efficiency (dilutional efficiency) PGK1: slope of serially diluted template plots
Text: The efficiency of amplification by Taq DNA polymerase in the presence of Tween 20 or the anionic detergent, poly (ethylene glycol) 4-nonylphenyl 3 sulfopropyl ether potassium salt, was compared using SYBR Green quantitative real-time PCR (qPCR) to amplify four different fragments in Msel-digested or intact human genomic DNA. Each reaction comprised 1× Jumpstart Taq Ready mix (Sigma Aldrich, St. Louis, Mo.) formulated with Tween 20 or poly (ethylene glycol) 4-nonylphenyl 3 sulfopropyl ether potassium salt, 1×ROX (reference dye), 0.8×SYBR green, 0.4 μM primers. The template was serially diluted such that reactions contained 25 ng, 2.5 ng, or 0.25 ng of intact DNA or 400 ng, 40 ng, of 4 ng of digested DNA. The cycling profile was 95° C. for 3 min, 35 cycles of 95° C. for 30 sec, 55° C. for 60 sec, and 72° C. for 120 sec.
Table 2 presents the Ct values (which is the cycle that the fluorescence exceeds a defined threshold value) for each amplified product using the different templates. The ‘no template’ control reactions (for every primer pair) produced no amplicons.
The efficiency of amplification was derived from the slopes of the serially diluted template amplification plots (dilutional efficiency), and the percent efficiency is also presented in Table 2.
Individual reaction efficiencies were calculated in an effort to explore the nature of the dilutional efficiency effects. […] That is, reactions with lower amounts of template were less efficiently primed or initiated in the presence of Tween 20 than in the presence of the anionic surfactant. Once the amplification process began, however, the reaction efficiencies were detergent independent.

## C[C@H](CCC(=O)NCCC[N+](C)(C)CCCS(=O)(=O)[O-])[C@H]1CC[C@H]2[C@@H]3[C@H](O)C[C@@H]4C[C@H](O)CC[C@]4(C)[C@@]3(C)C[C@H](O)[C@]12C [CHAPS, 3-[(3-cholamidopropyl)dimethylammonio]-1-propanesulfonate]
Taq DNA polymerase [1]
  Detergent supported PCR in screening reactions: supported PCR
Taq DNA polymerase [2]
  Ability of stored Taq formulation to support PCR: substantially able to support PCR

## C[C@H](CCC(=O)NCCC[N+](C)(C)CC(O)CS(=O)(=O)[O-])[C@H]1CC[C@H]2[C@@H]3[C@H](O)C[C@@H]4C[C@H](O)CC[C@]4(C)[C@H]3C[C@H](O)[C@]12C (stereo partly shown) [CHAPSO, 3-[(3-cholamidopropyl)dimethylammonio]-2-hydroxy-1-propanesulfonate]
Taq DNA polymerase [1]
  Detergent supported PCR in screening reactions: supported PCR

## nonyl nonoxynol-15 phosphate [Rhodafac RM710]
Taq DNA polymerase [1]
  Detergent supported PCR in screening reactions: supported PCR
Taq DNA polymerase [1]; low concentration of the detergent
  Amplified products (500 bp lambda DNA fragment) on agarose gel: Amplified products were present

## poly (ethylene glycol) 4-nonylphenyl 3-sulfopropyl ether potassium salt [Anionic]
Taq DNA polymerase [3]
  Non-specific, secondary amplification products compared with standard Tween 20 formulations: fewer non-specific, secondary amplification products
Taq DNA polymerase [4]; Intact DNA, 0.25 ng
  Ct 14-3-3: 30.8
  Ct CD14F: No Ct
  Ct HoxA2: 30.41
  Ct PGK1: 31.59
Taq DNA polymerase [4]; Intact DNA, 2.5 ng
  Ct 14-3-3: 27.88
  Ct CD14F: 33.98
  Ct HoxA2: 26.92
  Ct PGK1: 28.33
Taq DNA polymerase [4]; Intact DNA, 25 ng
  Ct 14-3-3: 24.31
  Ct CD14F: 28.72
  Ct HoxA2: 23.33
  Ct PGK1: 23.62
Taq DNA polymerase [4]; Intact DNA, 0.25
  Reaction Efficiencies 14-3-3: 98%
  Reaction Efficiencies CD14F: *
  Reaction Efficiencies HoxA2: 102%
  Reaction Efficiencies PGK1: 97%
Taq DNA polymerase [4]; Intact DNA, 2.5
  Reaction Efficiencies 14-3-3: 115%
  Reaction Efficiencies CD14F: 124%
  Reaction Efficiencies HoxA2: 102%
  Reaction Efficiencies PGK1: 101%
Taq DNA polymerase [4]; Intact DNA, 25
  Reaction Efficiencies 14-3-3: 102%
  Reaction Efficiencies CD14F: 99%
  Reaction Efficiencies HoxA2: 104%
  Reaction Efficiencies PGK1: 98%
Taq DNA polymerase [4]; Intact DNA
  Efficiency (dilutional efficiency) 14-3-3: 105%
  Efficiency (dilutional efficiency) CD14F: 26%
  Efficiency (dilutional efficiency) HoxA2: 86%
  Efficiency (dilutional efficiency) PGK1: 63%
Taq DNA polymerase [4]; Mse-I digested DNA, 4 ng
  Ct 14-3-3: 28.65
  Ct CD14F: No Ct
  Ct HoxA2: 29.96
  Ct PGK1: 31.38
Taq DNA polymerase [4]; Mse-I digested DNA, 40 ng
  Ct 14-3-3: 24.86
  Ct CD14F: 34.72
  Ct HoxA2: 26.47
  Ct PGK1: 27.95
Taq DNA polymerase [4]; Mse-I digested DNA, 400 ng
  Ct 14-3-3: 21.17
  Ct CD14F: 30.15
  Ct HoxA2: 22.27
  Ct PGK1: 23.17
Taq DNA polymerase [4]; Mse-I digested DNA
  Efficiency (dilutional efficiency) 14-3-3: 75%
  Efficiency (dilutional efficiency) CD14F: 42%
  Efficiency (dilutional efficiency) HoxA2: 69%
  Efficiency (dilutional efficiency) PGK1: 58%
Taq DNA polymerase [4]; MseI digested DNA, 4 ng
  Reaction Efficiencies 14-3-3: 103%
  Reaction Efficiencies CD14F: *
  Reaction Efficiencies HoxA2: 99%
  Reaction Efficiencies PGK1: 97%
Taq DNA polymerase [4]; MseI digested DNA, 40 ng
  Reaction Efficiencies 14-3-3: 107%
  Reaction Efficiencies CD14F: 92%
  Reaction Efficiencies HoxA2: 101%
  Reaction Efficiencies PGK1: 102%
Taq DNA polymerase [4]; MseI digested DNA, 400 ng
  Reaction Efficiencies 14-3-3: 101%
  Reaction Efficiencies CD14F: 99%
  Reaction Efficiencies HoxA2: 100%
  Reaction Efficiencies PGK1: 97%
Taq DNA polymerase [4]; digested templates
  Average efficiency of the three amplicons with efficiencies for both formulations: 67.3%
Taq DNA polymerase [4]; each amplicon
  Efficiency compared with the corresponding Tween 20 formulation: higher efficiency
Taq DNA polymerase [4]; higher dilutions of template
  Ct values compared with Tween 20-containing amplification mixes: lower Ct values at higher dilutions
Taq DNA polymerase [4]; intact templates
  Average efficiency of the three amplicons with efficiencies for both formulations: 84.7%
Taq DNA polymerase [1]
  Detergent supported PCR in screening reactions: supported PCR
Taq DNA polymerase [2]
  Ability of stored Taq formulation to support PCR: able to support PCR at all the times tested

## poly(ethylene glycol) monolaurate
Taq DNA polymerase [1]
  Detergent supported PCR in screening reactions: supported PCR

## polyoxyethylene(150)dinonylphenyl ether [Igepal® DM-970]
Taq DNA polymerase [1]
  Detergent supported PCR in screening reactions: supported PCR
